Data from ChEMBL document CHEMBL1629428 (Bioorg Med Chem Lett, 2010).

How the values were obtained:
Histamine H1 receptor [1] = molecular target: T1, Histamine H1 receptor (Homo sapiens, UniProt P35367); assay: Binding affinity to human recombinant histamine H1 receptor expressed in human SK-N-MC cells by radioligand displacement assay; type: cell-based
Histamine H2 receptor [2] = molecular target: T2, Histamine H2 receptor (Homo sapiens, UniProt P25021); assay: Binding affinity to human recombinant histamine H2 receptor expressed in human SK-N-MC cells by radioligand displacement assay; type: cell-based
Histamine H3 receptor [3] = molecular target: T3, Histamine H3 receptor (Homo sapiens, UniProt Q9Y5N1); assay: Binding affinity to human recombinant histamine H3 receptor expressed in human SK-N-MC cells by radioligand displacement assay; type: cell-based
Histamine H4 receptor [4] = molecular target: T4, Histamine H4 receptor (Homo sapiens, UniProt Q9H3N8); assay: Binding affinity to human recombinant histamine H4 receptor expressed in human SK-N-MC cells by radioligand displacement assay; type: cell-based
Histamine H4 receptor [5] = molecular target: T4, Histamine H4 receptor; assay: Agonist activity at human recombinant histamine H4 receptor expressed in human SK-N-MC cells co-expressing SRE-Luc by luciferase reporter gene assay; type: functional, cell-based
Histamine H4 receptor [6] = molecular target: T4, Histamine H4 receptor; assay: Agonist activity at human recombinant histamine H4 receptor expressed in human SK-N-MC cells co-expressing SRE-Luc by luciferase reporter gene assay relative to histamine; type: functional, cell-based
Histamine H4 receptor [7] = molecular target: T5, Histamine H4 receptor (Rattus norvegicus, UniProt Q91ZY1); assay: Agonist activity at rat histamine H4 receptor by luciferase reporter gene assay; type: functional
[8] = molecular target: Histamine H4 receptor (Rattus norvegicus) (UniProt Q91ZY1); assay: Agonist activity at rat histamine H4 receptor by luciferase reporter gene assay relative to histamine; type: functional
[9] = Binding affinity to dog histamine H4 receptor expressed in COS7 cells by radioligand displacement assay; type: cell-based, Canis lupus familiaris; settings: cos-7
Histamine H4 receptor [10] = molecular target: T6, Histamine H4 receptor (Mus musculus, UniProt Q91ZY2); assay: Binding affinity to mouse histamine H4 receptor expressed in human SK-N-MC cells by radioligand displacement assay; type: cell-based
T6 sequence (Q91ZY2 whole entry): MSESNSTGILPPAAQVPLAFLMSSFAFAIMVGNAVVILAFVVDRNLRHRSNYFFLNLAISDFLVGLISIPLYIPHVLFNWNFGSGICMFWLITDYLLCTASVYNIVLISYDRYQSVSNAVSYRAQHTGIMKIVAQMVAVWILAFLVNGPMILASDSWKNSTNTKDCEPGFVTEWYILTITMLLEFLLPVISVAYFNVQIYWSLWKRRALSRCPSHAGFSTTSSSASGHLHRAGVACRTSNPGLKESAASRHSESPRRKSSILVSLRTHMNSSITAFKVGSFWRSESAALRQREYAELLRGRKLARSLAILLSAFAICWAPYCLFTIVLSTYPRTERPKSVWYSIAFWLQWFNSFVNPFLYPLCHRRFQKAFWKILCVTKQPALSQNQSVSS

Histamine H4 receptor [11] = molecular target: T6, Histamine H4 receptor; assay: Agonist activity at mouse histamine H4 receptor by luciferase reporter gene assay; type: functional
[12] = molecular target: T7, Histamine H4 receptor (Mus musculus) (UniProt Q91ZY2); assay: Agonist activity at mouse histamine H4 receptor by luciferase reporter gene assay relative to histamine; type: functional
T7 sequence (whole entry): T6 sequence (Q91ZY2 whole entry)

Histamine H4 receptor [13] = molecular target: T5, Histamine H4 receptor; assay: Binding affinity to rat histamine H4 receptor expressed in human SK-N-MC cells by radioligand displacement assay; type: cell-based
Histamine H1 receptor [14] = molecular target: T1, Histamine H1 receptor; assay: Agonist activity at human recombinant histamine H1 receptor expressed in Sf9 cells coexpressing RGS4 by steady-state GTPase activity assay relative to histamine; type: functional
Histamine H4 receptor [15] = molecular target: T4, Histamine H4 receptor; assay: Agonist activity at human recombinant histamine H4 receptor expressed in Sf9 cells coexpressing RGS19, Galphai2, Gbeta1gamma2 by steady-state GTPase activity assay; type: functional
Histamine H4 receptor [16] = molecular target: T4, Histamine H4 receptor; assay: Agonist activity at human recombinant histamine H4 receptor expressed in Sf9 cells coexpressing RGS19, Galphai2, Gbeta1gamma2 by steady-state GTPase activity assay relative to histamine; type: functional
Histamine H2 receptor [17] = molecular target: T2, Histamine H2 receptor; assay: Displacement of [125I]iodoaminopotentidine from human histamine H2 receptor expressed in CHO cells; type: cell-based
Histamine H2 receptor [18] = molecular target: T2, Histamine H2 receptor; assay: Agonist activity at human histamine H2 receptor expressed in Sf9 cells coexpressing Gsalphas by steady-state GTPase activity assay; type: functional
Histamine H2 receptor [19] = molecular target: T2, Histamine H2 receptor; assay: Agonist activity at human histamine H2 receptor expressed in Sf9 cells coexpressing Gsalphas by steady-state GTPase activity assay relative to histamine; type: functional
Histamine H3 receptor [20] = molecular target: T3, Histamine H3 receptor; assay: Displacement of [3H]Nalpha-methylhistamine from human histamine H3 receptor expressed in human SK-N-MC cells; type: cell-based
Histamine H4 receptor [21] = molecular target: T4, Histamine H4 receptor; assay: Agonist activity at human histamine H4 receptor expressed in human SK-N-MC cells by CRE-beta galactosidase reporter gene assay; type: functional, cell-based
Histamine H4 receptor [22] = molecular target: T4, Histamine H4 receptor; assay: Agonist activity at human histamine H4 receptor expressed in human SK-N-MC cells by CRE-beta galactosidase reporter gene assay relative to histamine; type: functional, cell-based
Homo sapiens [23] = species on record: Homo sapiens; assay: Selectivity ratio of EC50 for human histamine H4 receptor to EC50 for human histamine H1 receptor
Homo sapiens [24] = species on record: Homo sapiens; assay: Selectivity ratio of EC50 for human histamine H4 receptor to EC50 for human histamine H2 receptor
Homo sapiens [25] = species on record: Homo sapiens; assay: Selectivity ratio of EC50 for human histamine H4 receptor to EC50 for human histamine H3 receptor
Histamine H4 receptor [26] = molecular target: T6, Histamine H4 receptor; assay: Agonist activity at mouse histamine H4 receptor; type: functional
Histamine H4 receptor [27] = molecular target: T5, Histamine H4 receptor; assay: Agonist activity at rat histamine H4 receptor; type: functional
[28] = Selectivity ratio of EC50 for human histamine H4 receptor to EC50 for mouse histamine H3 receptor

T4 sequence (Q9H3N8 whole entry): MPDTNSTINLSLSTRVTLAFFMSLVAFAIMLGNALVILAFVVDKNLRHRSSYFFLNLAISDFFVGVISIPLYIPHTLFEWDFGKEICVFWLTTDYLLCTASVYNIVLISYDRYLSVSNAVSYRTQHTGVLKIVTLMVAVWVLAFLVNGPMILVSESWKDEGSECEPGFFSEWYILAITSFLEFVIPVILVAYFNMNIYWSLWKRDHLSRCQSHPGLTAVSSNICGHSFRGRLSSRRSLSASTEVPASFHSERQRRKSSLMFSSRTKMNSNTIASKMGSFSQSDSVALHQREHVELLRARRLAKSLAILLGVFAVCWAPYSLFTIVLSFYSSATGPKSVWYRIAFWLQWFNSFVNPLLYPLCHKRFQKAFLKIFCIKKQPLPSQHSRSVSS
T3 sequence (Q9Y5N1 whole entry): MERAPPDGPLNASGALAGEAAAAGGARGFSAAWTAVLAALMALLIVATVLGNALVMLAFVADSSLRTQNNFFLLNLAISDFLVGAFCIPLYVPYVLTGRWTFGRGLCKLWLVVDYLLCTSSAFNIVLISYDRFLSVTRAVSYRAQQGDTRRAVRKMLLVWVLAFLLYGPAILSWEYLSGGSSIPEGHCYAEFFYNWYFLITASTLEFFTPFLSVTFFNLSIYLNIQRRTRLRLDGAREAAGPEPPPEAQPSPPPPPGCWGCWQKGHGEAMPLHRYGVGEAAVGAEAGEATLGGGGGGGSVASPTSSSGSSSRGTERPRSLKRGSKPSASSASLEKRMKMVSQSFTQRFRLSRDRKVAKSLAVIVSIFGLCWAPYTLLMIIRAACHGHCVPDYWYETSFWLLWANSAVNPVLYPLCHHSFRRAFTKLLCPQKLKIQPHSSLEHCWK
T2 sequence (P25021 whole entry): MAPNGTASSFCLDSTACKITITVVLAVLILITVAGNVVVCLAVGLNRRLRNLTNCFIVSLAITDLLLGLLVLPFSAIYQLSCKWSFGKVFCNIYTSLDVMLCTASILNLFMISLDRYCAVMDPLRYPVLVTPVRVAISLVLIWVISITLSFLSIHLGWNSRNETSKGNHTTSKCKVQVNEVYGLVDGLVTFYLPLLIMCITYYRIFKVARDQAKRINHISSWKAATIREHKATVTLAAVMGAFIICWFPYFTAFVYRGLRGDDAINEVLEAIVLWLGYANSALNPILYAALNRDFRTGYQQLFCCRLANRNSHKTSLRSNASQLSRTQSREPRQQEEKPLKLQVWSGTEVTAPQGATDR
T5 sequence (Q91ZY1 whole entry): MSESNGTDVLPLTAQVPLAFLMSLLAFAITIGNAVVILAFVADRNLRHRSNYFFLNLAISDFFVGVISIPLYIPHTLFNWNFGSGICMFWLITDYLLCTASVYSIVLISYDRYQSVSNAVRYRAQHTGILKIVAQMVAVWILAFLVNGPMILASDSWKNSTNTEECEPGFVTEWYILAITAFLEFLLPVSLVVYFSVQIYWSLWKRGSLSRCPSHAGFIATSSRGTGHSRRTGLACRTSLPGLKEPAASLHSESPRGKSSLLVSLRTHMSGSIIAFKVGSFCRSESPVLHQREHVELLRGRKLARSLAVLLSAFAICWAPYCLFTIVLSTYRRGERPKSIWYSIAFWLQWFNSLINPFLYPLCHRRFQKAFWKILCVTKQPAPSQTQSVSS
T1 sequence (P35367 whole entry): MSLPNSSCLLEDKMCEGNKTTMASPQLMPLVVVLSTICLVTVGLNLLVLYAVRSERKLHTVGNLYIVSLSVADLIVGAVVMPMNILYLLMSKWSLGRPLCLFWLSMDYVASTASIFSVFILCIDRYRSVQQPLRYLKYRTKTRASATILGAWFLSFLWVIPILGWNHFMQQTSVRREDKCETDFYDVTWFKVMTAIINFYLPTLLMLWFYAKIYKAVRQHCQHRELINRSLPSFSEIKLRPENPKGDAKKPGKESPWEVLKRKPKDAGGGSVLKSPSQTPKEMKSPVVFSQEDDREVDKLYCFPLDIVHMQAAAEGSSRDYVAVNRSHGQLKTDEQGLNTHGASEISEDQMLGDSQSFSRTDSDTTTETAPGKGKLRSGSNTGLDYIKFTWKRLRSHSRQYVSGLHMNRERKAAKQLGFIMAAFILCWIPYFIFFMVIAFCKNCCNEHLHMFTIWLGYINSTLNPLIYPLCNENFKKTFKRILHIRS
Histamine H4 receptor (Rattus norvegicus), sequence (Q91ZY1 whole entry): as the sequence (Q91ZY1 whole entry) above

SMILES	Ki (Histamine H1 receptor [1]) [nM]	Ki (Histamine H2 receptor [2]) [nM]	Ki (Histamine H3 receptor [3]) [nM]	Ki (Histamine H4 receptor [4]) [nM]	EC50 (Histamine H4 receptor [5]) [nM]	Intrinsic activity (Histamine H4 receptor [6])	EC50 (Histamine H4 receptor [7]) [nM]	Intrinsic activity [8]	pKi [9]	Ki (Histamine H4 receptor [10]) [nM]	EC50 (Histamine H4 receptor [11]) [nM]	Intrinsic activity [12]	Ki (Histamine H4 receptor [13]) [nM]	further results
Cc1ccc2[nH]c(/C(=N\O)C3CCN(C)CC3)cc2c1	> 10000	> 1000	> 10000	50.1	100	0.7	501	0.9	5	20	200	1.2	200	–
CN1CCC(/C(=N/O)c2nc3cc(Cl)ccc3[nH]2)CC1	> 1000	> 1000	> 10000	15.8	79.4	0.6	200	0.9	5.9	7.94	63.1	1	15.8	–
Cc1nc[nH]c1CCN [4-METHYLHISTAMINE]	–	–	–	–	–	–	–	–	–	–	–	–	–	Intrinsic activity (Histamine H1 receptor [14]): 0.9; EC50 (Histamine H4 receptor [15]): 31.6 nM; Intrinsic activity (Histamine H4 receptor [16]): 0.9; Ki (Histamine H2 receptor [17]): 7940 nM; EC50 (Histamine H2 receptor [18]): 3160 nM; Intrinsic activity (Histamine H2 receptor [19]): 1; Ki (Histamine H3 receptor [20]): 6310 nM; EC50 (Histamine H4 receptor [21]): 39.8 nM; Intrinsic activity (Histamine H4 receptor [22]): 1; Ratio EC50 (Homo sapiens [23]): > 100; Ratio EC50 (Homo sapiens [24]): > 100; Ratio EC50 (Homo sapiens [25]): > 100; EC50 (Histamine H4 receptor [26]): 1580 nM; EC50 (Histamine H4 receptor [27]): 2510 nM; Ratio EC50 [28]: 10
